These results are taken from article PMC8269059, “Glycyrrhizin Derivatives Suppress Cancer Chemoresistance by Inhibiting Progesterone Receptor Membrane Component 1” (Cancers, 2021).

Each structure is given as a SMILES string. Where two headings read alike, the source gives them in different places.

For data set [1], the system named is LDL uptake in HCT116 cells. The data set can be described thus: Alexa Fluor 488-labelled LDL uptake in HCT116 cells. Format: cell-based, human. To be noted: HCT116, microscopy and flow cytometry, 5 min. On the procedure:
(§1) For the analysis of EGF and LDL uptake, HCT116 cells were incubated with serum-free DMEM supplemented with Alexa Fluor 488 EGF complex or Alexa Fluor 488 acetylated LDL to a final concentration of 1 µg/L at 37 °C for 5 min. For immunofluorescence microscopy analyses, HCT116 cells treated with Alexa Fluor 488-labeled EGF or LDL were fixed with 4% paraformaldehyde for 20 min and incubated in 10 mg/L DAPI for 15 min. The cells were observed using a BZ-x800 fluorescence microscope (Keyence, IL, USA). For flow cytometry analysis, HCT116 cells treated with Alexa Fluor 488-labeled EGF or LDL were detached using trypsin/EDTA and suspended in PBS. The mean fluorescent intensity per 10,000 cells was analyzed using a flow cytometer (Gallios, Beckman Coulter Life Science, Pasadena, CA, USA). The data were analyzed using Kaluza 2.1 analysis software (Beckman Coulter Life Science).

Data set [2] relates to HuH7 cells. The data set can be described thus: Chemosensitivity MTT assay in HuH7 cells. It counts as cell-based, human. As for the experimental part:
The HCT116 cells, a human colon cancer cell line, and HuH7 cells, a human hepatoma cell line, were maintained in Dulbecco’s modified Eagle’s medium (DMEM) containing 10% fetal bovine serum (FBS) and 1% penicillin-streptomycin at 37 °C in a 5% CO2 humidified incubator. The PGRMC1 knockdown (KD) cell line was established in a previous study using lentivirus vectors.
To analyze the chemosensitivity of HCT116 or HuH7 cells, the cells were incubated with erlotinib (20 µM) or CDDP (10 µM) and either GL or GL derivatives for 24 h on a 96-well plate. Cell viability was determined using an MTT assay kit (Millipore, Burlington, MA, USA) according to the manufacturer’s instructions.

Data set [3] has as its system HCT116 cells. The data set can be described thus: Chemosensitivity MTT assay in HCT116 cells. Format: cell-based, human. The note with it: Homo sapiens, HCT-116, HCT116 cell viability, MTT. On the technique in general: Tetrazolium assays rely on reduction of a dye to a coloured formazan, in cell work by metabolically active cells.
The target of data set [4] is T1, interaction between PGRMC1 and CYP3A4 (Homo sapiens, UniProt O00264).
T1 construct: FLAG-PGRMC1 (a.a. 44-195); Sigma (CYP3A4 only) C4982 (CYP3A4 only)
T1 sequence (O00264 44-195): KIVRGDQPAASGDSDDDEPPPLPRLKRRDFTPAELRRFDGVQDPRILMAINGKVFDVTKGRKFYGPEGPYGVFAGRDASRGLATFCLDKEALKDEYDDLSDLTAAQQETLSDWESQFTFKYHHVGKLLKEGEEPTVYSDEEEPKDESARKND
The data set is described as follows: In vitro binding assay between PGRMC1 and CYP3A4. The note with it: purified proteins, co-IP. As for the experimental part: For in vitro binding assays between PGRMC1 and CYP3A4, 1 μg of purified CYP3A4 proteins (Sigma: C4982) were incubated with 10 μg of FLAG-PGRMC1 (a.a. 44-195) treated with or without GL or GlucoGL in 500 μL of binding buffer containing 20 mM HEPES-NaOH (pH 7.9), 100 mM NaCl, 0.2 mM EDTA, 10% glycerol, and 0.1% NP40 for 60 min at room temperature. Then, 10 μL of equilibrated anti-FLAG (M2) agarose was added to the mixture, which was then incubated for 60 min at room temperature. Bound proteins were washed three times with 200 μL of binding buffer and eluted with 10 μL of 2 μg/mL FLAG elution peptide (Sigma: F4799). The eluates were subjected to SDS–PAGE and visualized by Western blotting using antibodies against CYP3A4 (Santa Cruz: sc-53850) and FLAG.

For data set [5], the system named is HCT116 cells xenograft. The data set is described as follows: HCT116 xenograft in nude mice. It counts as in vivo, mouse. To be noted: i.p. twice a week, vs control; for Tumor volume, in combination with CDDP: CDDP 2 mg/kg plus GL 400 mg/kg (day 22) or GlucoGL 100 mg/kg (from day 15). On the procedure:
All protocols for animal experiments in this study were approved by the Experimental Animal Committee of Keio University School of Medicine (approval number: 08024-(13), approval date: 30 September 2020). HCT116 cells (2 × 10^6 cells/mouse) with half of Matrigel (Corning, NY, USA) were transplanted subcutaneously into the flank of 7-week-old nude mice. Four days after the transplantation, tumor size was measured in three dimensions with calipers and grouped by tumor volume. CDDP (2 mg/kg), GL (400 mg/kg), or GlucoGL (100 mg/kg) were administered to the mice intraperitoneally, and the tumor volume was measured twice a week for 22 days.

In data set [6] the test system is EGFR signaling (phosphorylation of EGFR, AKT, ERK). The data set can be described thus: EGF-induced EGFR signaling (western blot) in HCT116 cells. Format: cell-based, human. To be noted: for EGF-induced phosphorylation of EGFR, AKT and ERK: HCT116, EGF 100 ng/mL for 5 min. The source says: […] Cells were lysed with RIPA buffer, and the lysates were subjected to SDS-PAGE and visualized through western blotting using antibodies against PGRMC1, EGFR, phospho-Y1068 EGFR, AKT, phospho-S473AKT, ERK, and phospho-T185 Y187 ERK.
Background: Immunoblotting shows a protein as a band on a membrane.

The test system of data set [7] is EGF signaling. The data set is described as follows: EGF signaling (western blot) in HuH7 cells. Format: cell-based, human. The note with it: HuH7, EGF for 5 min. On the procedure: For analysis of EGFR signaling, cells were incubated overnight with GL or GlucoGL, and then EGF (100 ng/mL) was added for 5 min. Cells were lysed with RIPA buffer, and the lysates were subjected to SDS-PAGE and visualized through western blotting using antibodies against PGRMC1, EGFR, phospho-Y1068 EGFR, AKT, phospho-S473AKT, ERK, and phospho-T185 Y187 ERK.

The test system of data set [8] is EGF uptake in HCT116 cells. The data set is described as follows: Alexa Fluor 488 EGF uptake in HCT116 cells. Format: cell-based, human. The note with it: HCT116, microscopy and flow cytometry, 5 min, vs control cells. As for the experimental part: as §1
(In flow cytometry, cells or beads pass a laser one at a time.)

Data set [9] addresses T2, interaction between PGRMC1 and EGFR (Homo sapiens, UniProt O00264).
T2 construct: mammalian FLAG-tagged expression vector pCMV-FLAG-PGRMC1 (full-length); expressed in transfected cells; host or cells: HCT116 or HuH7
The data set is described as follows: Co-immunoprecipitation of PGRMC1 and EGFR in HCT116 cells. Format: cell-based. The note with it: HCT116, FLAG-PGRMC1 co-IP, 12 h treatment. As for the experimental part:
An expression vector of pCMV-3xFLAG-PGRMC1 or an empty vector was transfected into HCT116 cells or HuH7 cells using the transfection reagent Lipofectamine 2000 (Invitrogen). The cells were incubated overnight with either GL or GlucoGL. Cells were then lysed with NP40 lysis buffer (20 mM Tris-HCl [pH 7.5], 150 mM NaCl, and 1% NP40). The lysates were incubated with 10 μL of equilibrated anti-FLAG (M2) agarose for 60 min at room temperature. Bound proteins were washed three times and subjected to SDS-PAGE and visualized through western blotting using antibodies against FLAG, EGFR, and LDLR. For analysis of the endogenous PGRMC1-binding with FLAG-PGRMC1, HCT116 cells (1 × 10^7 cells) were treated with vehicle or 250 μM SA and/or 10 μM hemin for 48 h, and the cell lysates were co-immunoprecipitated with anti-FLAG (M2) agarose. Bound proteins (endogenous PGRMC1 and FLAG-tagged PGRMC1) were visualized through western blotting using antibody against PGRMC1.

Where [10] appears, read: with CDDP (10 µM), read-out: IC50 CDDP.
Where [11] appears, read: with erlotinib (20 µM), read-out: IC50 Erlotinib.

T2 sequence (O00264 whole entry): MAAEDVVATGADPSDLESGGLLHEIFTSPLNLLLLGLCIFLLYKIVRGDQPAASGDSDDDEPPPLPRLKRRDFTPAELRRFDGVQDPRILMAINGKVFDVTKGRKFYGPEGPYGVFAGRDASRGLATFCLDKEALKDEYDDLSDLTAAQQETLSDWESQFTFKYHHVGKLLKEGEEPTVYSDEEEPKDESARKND

Usually IC50 stands for the point on the concentration scale where inhibition reaches its midpoint. Turning to `CC1(C(=O)O)CCC2(C)CCC3(C)C(=CC(=O)C4C5(C)CCC(OC6OC(C(=O)O)C(O)C(O)C6OC6OC(CO)C(O)C(O)C6O)C(C)(C)C5CCC43C)C2C1` (stereo not shown) [Glucoglycyrrhizin (GlucoGL), Glucoglycyrrhizin], the Labelled-LDL uptake entry in data set [1] was “significantly suppressed”. Further, in data set [2], the “Cell viability with erlotinib or CDDP” value was “significantly suppressed cell viability”. Further, the IC50 in data set [3] (setting [10]) came out at 14.9 µM; in data set [3] (setting [11]), 15.7 µM. In addition, in data set [4], the “Interaction between PGRMC1 and CYP3A4” value is “interfered with the interaction”. Further, the “Tumor volume, in combination with CDDP” value in [5] is on record as “significantly suppressed the tumor volume”. Further, in data set [6], the “EGF-induced phosphorylation of EGFR, AKT and ERK” value is “significantly suppressed”. The “EGF signaling, time-course” value in data set [6] (HCT116, early phase of EGF stimulation (5 or 10 min)) was “remarkable inhibitory effect”. In addition, the EGF signaling result in data set [7] is reported as “suppressed the EGF signaling”. The “Uptake of labelled EGF” value in data set [8] is on record as “significantly suppressed”. In data set [9], the “Interaction between PGRMC1 and EGFR” value was “inhibited the interaction more potently”.

`CC1(C)[C@@H](O[C@H]2O[C@H](C(=O)O)[C@@H](O)[C@H](O)[C@H]2O[C@@H]2O[C@H](C(=O)O)[C@@H](O)[C@H](O)[C@H]2O)CC[C@]2(C)[C@H]3C(=O)C=C4[C@@H]5C[C@@](C)(C(=O)O)CC[C@]5(C)CC[C@@]4(C)[C@]3(C)CC[C@@H]12` [Glycyrrhizin (GL), Glycyrrhizin]: in data set [1], the Labelled-LDL uptake result was “significantly suppressed”. For the same molecule, the “Cell viability with erlotinib or CDDP” value in data set [2] was “significantly suppressed cell viability”. Moreover, the results for the IC50 in [3] (setting [10]) and in data set [3] (setting [11]) were 53.1 µM and 52 µM, respectively. Besides, the “Interaction between PGRMC1 and CYP3A4” value in data set [4] is on record as “interfered with the interaction”. For the same molecule, the “Tumor volume, administered individually” value in [5] (22 days, CDDP 2 mg/kg, GL 400 mg/kg) is recorded as “no differences in tumor volume”. Also, in [5], the “Tumor volume, in combination with CDDP” value was “significantly smaller”. Besides, in data set [6], the “EGF-induced phosphorylation of EGFR, AKT and ERK” value is “significantly suppressed”. For the same molecule, the EGF signaling entry in [7] is listed as “suppressed the EGF signaling”. Also, in data set [8], the “Uptake of labelled EGF” value is recorded as “significantly suppressed”. Moreover, the “Interaction between PGRMC1 and EGFR” value in data set [9] is “inhibited”.
